US8404284B2, “Medicinal and herbal composition and uses thereof” (priority 2010, dated 2013)

Experiments:
[1] = Clinical observation of adverse effects; assay type: in vivo, human; settings: 960 mg tablets daily
Description: Patients were tested weekly for progress and toxicities. We then determined a dose which can be tolerated by most of the patients, and recruited more subjects. In a preferred embodiment, two HC's (one each, B.I.D), approximately equal to 500 mg of the active ingredients of U.S. Pat. No. 7,556,830 per day, are administered. However, adjustments must be made according to the body weight of the subject, and lesser or higher dosages of as low as 100 mg and as high as 1 g, can be deployed. As a majority of the patients' health improved, we progressively scheduled their appointments further apart, to once every two weeks, and then, on a monthly basis.

[2] = Treatment of mild myocarditis / tachycardia in subjects; assay type: in vivo, human; settings: for Response of mild myocarditis: four subjects
Text: Rogers et. al. described an IRIS case which manifested in the form of fulminant myocarditis. […] All four subjects of the instant experiment had no previous heart condition and were started with the HC alone, but were given LDN after the first mortality had occurred.
They were turned down several times to be a participant in the herbal program because they refused to take their spouse for counseling. […] They were diagnosed with borderline cardiomegaly around one year after initially testing HIV positive, and developed tachycardia, but had no subjective complaint and never developed fever. We maintained them on Lanoxin 250 μg, which controlled their heart rate below 100 beats/minute, and also started them on LDN.

[3] = tested on: HIV; settings: LDN alone on HIV+ subjects; stated by Bihari; cited from earlier work
[4] = cited from earlier work

For cotrimoxazole, which Bone marrow suppression [1] is on record?
The Bone marrow suppression was “several patients developed bone marrow suppression”.

Which “Response of mild myocarditis” value [2] does the source give for `C[C@H]1O[C@@H](O[C@H]2[C@@H](O)C[C@H](O[C@H]3[C@@H](O)C[C@H](O[C@H]4CC[C@@]5(C)[C@H](CC[C@@H]6[C@@H]5C[C@@H](O)[C@]5(C)[C@@H](C7=CC(=O)OC7)CC[C@]65O)C4)O[C@@H]3C)O[C@@H]2C)C[C@H](O)[C@@H]1O` [digoxin] here?
The value was “responded promptly”.

What about the Heart rate ([2]; patient, tachycardia, 250 μg) of the same compound?
Its Heart rate is “below 100 beats/minute”.

Which “Effect on CD4 count” value [3] does the source give for `O=C1CC[C@@]2(O)[C@H]3Cc4ccc(O)c5c4[C@@]2(CCN3CC2CC2)[C@H]1O5` [Naltrexone, 17-(cyclopropylmethyl)-4,5α-epoxy-3,14-dihydroxymorphinan-6-one] here?
Its value is “does not increase CD4 count, but only maintains its level or delays its decrease”.

And the Bioavailability [4]?
The Bioavailability was 5-40%.

With `NS(=O)(=O)c1cc(C(=O)O)c(NCc2ccco2)cc1Cl` [furosemide] as the compound, how does the “Response of mild myocarditis” value [2] read?
Its value is “responded promptly”.
